We go through one molecule from patent US10869844B2, “Methods for the treatment of depression” (Janssen Pharmaceutica NV, priority 2014, dated 2020).

Experiment [1] has as its system patients with major depressive disorders. Particulars: cited from earlier work.
The next experiment has as its system Met/Met knocked in mice. Particulars: LIU, Biol. Psychiatry 2012; cited from earlier work.
The test system of experiment [2] is adult subjects with TRD. Particulars: for Day 17 responders who maintained response status up to Day 35, % / Day 17 responders who maintained response status up to Day 35, number: all subjects.
Experiment [3] has as its system adult subjects with TRD. Format: in vivo, human. As to conditions: for Non-responders % / Non-responders N / Responders % (MADRS total score reduction >50% TRD2001, ≥50% TRD2002) / Responders N (MADRS total score reduction >50% TRD2001, ≥50% TRD2002): after first infusion (Day 2 TRD2001, Day 3 or 4 TRD2002). The procedure: Association between changes in MADRS total score from baseline and the SNP rs6265 after a single dose was evaluated in placebo subjects and active subjects using an ANCOVA model under a dominant model with baseline MADRS total score, and grouped genotype (Val/Val or Met carrier). A statistically significant result was found in active subjects (p=0.02).
Association between the % responders and the SNP rs6265 after a single dose was evaluated in placebo subjects and active subjects using a logistic regression model under a dominant model with baseline MADRS total score and grouped genotype (Val/Val or Met carrier). A statistically significant result was found in active subjects (p=0.03).
Association between the % remitters and the SNP rs6265 after a single dose was evaluated in placebo subjects and as well as in active subjects using a logistic regression model under a dominant model with baseline MADRS total score and grouped genotype (Val/Val or Met carrier).

Where two headings read alike, the source gives them in different places.

For the molecule `CNC1(c2ccccc2Cl)CCCCC1=O` (racemic) [Ketamine, ketamine], the “Likelihood of antidepressant response, Val/Val BDNF allele at rs6265 vs Met carriers” value in experiment [1] (MDD patients, LAJE, Biol. Psychiatry 2012) was “more likely to exhibit antidepressant response to ketamine than Met carriers”. Further, the “Onset of rapid antidepressant effect” value in experiment [1] (patients with major depressive disorders) was “within two hours”. Moreover, in the experiment on Met/Met knocked in mice, the “Antidepressant-like response, Met/Met knocked in mice compared to Val/Val mice” value was “blunted antidepressant-like response” and the “Synaptogenesis, Met/Met knocked in mice compared to Val/Val mice” value is “reduced synaptogenesis”. Besides, in the experiment with adult subjects with TRD [2] (Met carriers (of 7)), the “Day 17 responders who maintained response status up to Day 35, %” value amounted to 42.9% and the “Day 17 responders who maintained response status up to Day 35, number” value turned out to be 3. In the experiment with adult subjects with TRD [2] (Val/Val (of 12)), the “Day 17 responders who maintained response status up to Day 35, %” value is 91.7% and the “Day 17 responders who maintained response status up to Day 35, number” value stood at 11. In addition, the “Responders on Day 17, number” value with adult subjects with TRD [2] (among all subjects (Val/Val and Met carriers)) is 19. The “Responders on Day 17, number” value in the experiment with adult subjects with TRD [2] (among all subjects, Met carriers) worked out at 7. Moreover, in the experiment on adult subjects with TRD [2] (among all subjects, Val/Val), the “Responders on Day 17, number” value is 12. Further, in the experiment on adult subjects with TRD [3] (Met carriers), the Non-responders % came to 92.3%; the “Non-responders N” value is given as 12; the “Responders % (MADRS total score reduction >50% TRD2001, ≥50% TRD2002)” value is 7.7%; the “Responders N (MADRS total score reduction >50% TRD2001, ≥50% TRD2002)” value came out at 1. Besides, in the experiment on adult subjects with TRD [3] (Val/Val), the Non-responders % is reported as 71.4%; the “Non-responders N” value is 15; the “Responders % (MADRS total score reduction >50% TRD2001, ≥50% TRD2002)” value came out at 28.6%; the “Responders N (MADRS total score reduction >50% TRD2001, ≥50% TRD2002)” value is recorded as 6. Also, the “Clinical response associated with Met allele of Val66Met rs6265” value with adult subjects with TRD [3] (acute, single dose administration) is “smaller clinical response”.
